Key:
Format in all cases: cell-based
HT-29 = experiment: SRB colorimetric cell growth inhibition assay, HT-29; settings: HT-29
Summary of the method: (§1)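 Cells are kept under uninterrupted exposure to compound. Staining with sulforhodamine B then measures cell growth and viability. Triplicate data give mean ± SD, from which growth inhibition, total growth inhibition and lethal concentration values follow.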

SK-MEL-28 = experiment: SRB colorimetric cell growth inhibition assay, SK-MEL-28; settings: MEL-28
Summary of the method: as §1

IGROV = experiment: SRB colorimetric cell growth inhibition assay, IGROV; settings: IGROV
Summary of the method: as §1

SK-BR-3 = experiment: SRB colorimetric cell growth inhibition assay, SK-BR-3; settings: SK-BR-3
Summary of the method: as §1

A-549 = experiment: SRB colorimetric cell growth inhibition assay, A-549; settings: A-549
Summary of the method: as §1

K-562 = experiment: SRB colorimetric cell growth inhibition assay, K-562
Summary of the method: as §1

IGROV-ET = experiment: SRB colorimetric cell growth inhibition assay, IGROV-ET (ET-743 resistant); settings: IGROV-ET
Summary of the method: as §1

DU-145 = experiment: SRB colorimetric cell growth inhibition assay, DU-145; settings: DU-145
Summary of the method: as §1

LNCaP = experiment: SRB colorimetric cell growth inhibition assay, LNCaP; settings: LN-caP
Summary of the method: as §1

LoVo-Dox = experiment: SRB colorimetric cell growth inhibition assay, LoVo-Dox (MDR); settings: LOVO-DOX
Summary of the method: as §1

LoVo = experiment: SRB colorimetric cell growth inhibition assay, LoVo; settings: LOVO
Summary of the method: as §1

HeLa = experiment: SRB colorimetric cell growth inhibition assay, HeLa; settings: HELA
Summary of the method: as §1

HeLa-APL = experiment: SRB colorimetric cell growth inhibition assay, HeLa-APL (aplidine resistant); settings: HELA-APL
Summary of the method: as §1

PANC-1 = experiment: SRB colorimetric cell growth inhibition assay, PANC-1; settings: PANC-1
Summary of the method: as §1

[1] = total growth inhibition (cytostatic effect)

## COc1cc(-c2c3c4cc(OC)c(OC(=O)[C@H](C)N)cc4oc(=O)c3n3ccc4c(OC(=O)[C@H](C)N)c(OC)c(OC)cc4c23)ccc1OC(=O)[C@H](C)N [Compound 16]
HT-29; GI=growth inhibition, read-out: GI50 HT-29
  GI50: 411 nM
HT-29; cell killing (cytotoxic effect), read-out: LC50 HT-29
  CC50: 5000 nM
HT-29; [1]
  TGI HT-29: 9.31E−07 Molar
SK-MEL-28; GI=growth inhibition, read-out: GI50 MEL-28
  GI50: 138 nM
SK-MEL-28; cell killing (cytotoxic effect), read-out: LC50 MEL-28
  CC50: 669 nM
SK-MEL-28; [1]
  TGI MEL-28: 3.04E−07 Molar
IGROV; GI=growth inhibition, read-out: GI50 IGROV
  GI50: 226 nM
IGROV; cell killing (cytotoxic effect), read-out: LC50 IGROV
  CC50: 1590 nM
IGROV; [1]
  TGI IGROV: 4.78E−07 Molar
SK-BR-3; GI=growth inhibition, read-out: GI50 SK-BR-3
  GI50: 207 nM
SK-BR-3; cell killing (cytotoxic effect), read-out: LC50 SK-BR-3
  CC50: 816 nM
SK-BR-3; [1]
  TGI SK-BR-3: 4.11E−07 Molar
A-549; GI=growth inhibition, read-out: GI50 A-549
  GI50: 178 nM
A-549; cell killing (cytotoxic effect), read-out: LC50 A-549
  CC50: 3050 nM
A-549; [1]
  TGI A-549: 5.02E−07 Molar
K-562; Homo sapiens, K562, K-562, GI=growth inhibition, read-out: GI50 K-562
  GI50: 183 nM
K-562; K-562, cell killing (cytotoxic effect), read-out: LC50 K-562
  CC50: 2230 nM
K-562; K-562, total growth inhibition (cytostatic effect)
  TGI K-562: 4.45E−07 Molar
IGROV-ET; GI=growth inhibition, read-out: GI50 IGROV-ET
  GI50: 278 nM
IGROV-ET; cell killing (cytotoxic effect), read-out: LC50 IGROV-ET
  CC50: 897 nM
IGROV-ET; [1]
  TGI IGROV-ET: 5.00E−07 Molar
DU-145; GI=growth inhibition, read-out: GI50 DU-145
  GI50: 52.7 nM
DU-145; cell killing (cytotoxic effect), read-out: LC50 DU-145
  CC50: 2800 nM
DU-145; [1]
  TGI DU-145: 2.98E−07 Molar
LNCaP; GI=growth inhibition, read-out: GI50 LN-caP
  GI50: 131 nM
LNCaP; cell killing (cytotoxic effect), read-out: LC50 LN-caP
  CC50: 534 nM
LNCaP; [1]
  TGI LN-caP: 2.65E−07 Molar
LoVo-Dox; Homo sapiens, GI=growth inhibition, read-out: GI50 LOVO-DOX
  GI50: 420 nM
LoVo-Dox; cell killing (cytotoxic effect), read-out: LC50 LOVO-DOX
  CC50: 4420 nM
LoVo-Dox; [1]
  TGI LOVO-DOX: 1.03E−06 Molar
LoVo; GI=growth inhibition, read-out: GI50 LOVO
  GI50: 196 nM
LoVo; cell killing (cytotoxic effect), read-out: LC50 LOVO
  CC50: 612 nM
LoVo; [1]
  TGI LOVO: 3.47E−07 Molar
HeLa; GI=growth inhibition, read-out: GI50 HELA
  GI50: 193 nM
HeLa; cell killing (cytotoxic effect), read-out: LC50 HELA
  CC50: 703 nM
HeLa; [1]
  TGI HELA: 3.68E−07 Molar
HeLa-APL; GI=growth inhibition, read-out: GI50 HELA-APL
  GI50: 229 nM
HeLa-APL; cell killing (cytotoxic effect), read-out: LC50 HELA-APL
  CC50: 2380 nM
HeLa-APL; [1]
  TGI HELA-APL: 5.20E−07 Molar
PANC-1; GI=growth inhibition, read-out: GI50 PANC-1
  GI50: 241 nM
PANC-1; cell killing (cytotoxic effect), read-out: LC50 PANC-1
  CC50: 3340 nM
PANC-1; [1]
  TGI PANC-1: 7.56E−07 Molar

From patent publication US7396837B2, “Antitumoral analogs of lamellarins” (Pharma Mar, S.A.U., priority 2002, dated 2008)
